Reference: patent US10864296B2, “Polypeptide and hyaluronic acid coatings” (INSTITUT NATIONAL DE LA SANTE ET DE LA RECHERCHE MEDICALE …, priority 2017, dated 2020)
Several values for one entry are separate records, joined by “and”; a condition that tells them apart may be missing. Equal values may be shown once.

Legend:
[1] = tested on: S. aureus; settings: Adv. Funct. Mater. 2013, 23, 4801-4809; cited from earlier work
[2] = tested on: S. aureus; test: Minimal inhibitory concentration (MIC) of PAR in solution, 24 h in MHB medium with S. aureus; format: cell-based, Staphylococcus aureus; settings: for bacterial growth inhibition in solution: PAR 1 μM; for times less active than PAR100 or PAR200 chains (from MICs in solution): per chain
Experimental: PAR with 10, 30, 100 or 200 arginine residues per chain were tested. Each PAR was incubated 24 h at 37° C. in 300 μL of MHB medium with S. aureus (A620=0.001). Pathogen growth of 0% corresponds to medium with antibiotics (and without PAR) and 100% to medium without PAR. Each value corresponds to the mean value of 3 individual experiments (3 samples per experiment and condition) and error bars correspond to standard deviations. For each concentration, the first column represents the normalized pathogen growth of S. aureus for PAR10, the 2nd column for PAR30, the third column for PAR100 and the fourth for PAR200.
Staphylococcus aureus (S. aureus, ATCC 25923) strains were used to assess the antibacterial properties of the test samples. Bacterial strain was cultured aerobically at 37° C. in a Mueller Hinton Broth (MHB) medium (Merck, Germany), pH 7.4. One colony was transferred to 10 mL of MHB medium and incubated at 37° C. for 20 h, to provide a final density of 10^6 CFU·mL^−1. To obtain bacteria in the mid logarithmic phase of growth, the absorbance at 620 nm of overnight culture was adjusted of 0.001.
In the following the inventors of the present invention wanted to further elucidate the underlying mechanism that confer to the coatings of the invention the strong inhibitory property on the surface and in the supernatant. As an example the (PAR30/HA)24 coating was further investigated. Accordingly, the minimal inhibitory concentration (MIC) of PAR in solution was determined using bacterial assay as described in Experimental Section. […] Finally for PAR at concentrations of 0.01 mg·mL^−1, inhibition of 100% was shown only for PAR30. Longer or shorter PAR chains (PAR10, PAR100 or PAR200) inhibits only partially (less than 40%) S. aureus growth. […] This reasoning is valid when PAR concentration values are expressed in mass (mg·mL^−1) thus it is related to the number of arginine monomers. However when the graph is plotted with concentrations in μM (and thus proportional in number of chains), which means that concentration is related to number of chains, different interpretation can be made (Data not shown). […] Moreover the MIC100 values obtained for PAR30, PAR100 or PAR200 ranges at very low concentrations (between 1 and 2 μM) which is remarkable when compared to well-known antimicrobial peptides (for example 30 μM for cateslytin with S. aureus, see Adv. Funct. Mater. 2013, 23, 4801-4809). PAR is thus a powerful candidate to fight against S. aureus.

[3] = Fluorescence recovery after photobleaching (FRAP) of PAR-FITC in (PAR/HA)24 multilayers; format: physicochemical; settings: PAR-FITC in (PAR/HA)24 multilayer, hydrochloride
Experimental: The diffusion coefficient, D, and the proportion of mobile molecules, p, was measured for (PAR/HA)24 multilayers containing PAR-FITC by performing photobleaching experiments (FRAP, Fluorescence Recovery After Photobleaching).
A glass slide coated with the multilayer was introduced in a home-made sample holder and immerged in 200 μl of Tris-NaCl buffer. One circular regions (4.4 μm in radius and referred as “R4” in an image of 35 μm×35 μm or 10.6 μm in radius and referred as “R10” in an image of 85 μm×85 μm) were exposed for 700 msec to the laser light set at its maximum power (λ=488 nm). Then, the recovery of the fluorescence in the bleached area was observed over time. Observations were carried out with a Zeiss LSM 710 microscope (Heidelberg, Germany) using a 20× objective (Zeiss, Plan Apochromat).
Then the inventors investigated if the bactericidal activity of the PAR30/HA multilayer is related to the mobility of these chains in the films. Indeed, it is known that the exponential character of a multilayer is related to the diffusion ability of at least one of its constituents in and out of the film during each deposition step. They first determined the mobility of the different chains, PAR10, PAR30, PAR100 and PAR200 in the (PAR/HA)24 multilayer by using FRAP method. […] Recovery of fluorescence appears very fast for PAR10 and PAR30 compare to PAR100 or PAR200. From these curves we can deduce the percentage of mobile chains over the timescale of the experiments. It clearly appears that PAR10 and PAR30 chains are more mobile (between 85 to 90% of mobile fraction) than the PAR100 (only 63% of mobile fraction). The largest chains PAR200 correspond to the slowest with about 12% of the population which is mobile (FIG. 8). Accordingly, the fraction of mobile chains dramatically decreases when the chain length increases from 30 to 100 or 200 residues.

[4] = Release of PAR-FITC from (PAR30/HA)24 into the supernatant; format: physicochemical; settings: after 24 h, from (PAR30/HA)24 built with PAR-FITC, 37° C.
Experimental: For the first experiment, a multilayer coating (PAR30/HA)24 was built by using PAR-FITC. Release experiments were performed at 37° C. during 24 h in presence of MHB medium or a S. aureus/MHB solution (A620=0.001). 300 μL of mineral oil were added on the top of the supernatant to prevent any evaporation during the monitoring. The release of PAR-FITC in solution was performed by measuring the fluorescence of the supernatant over time with a spectrofluorimeter (SAFAS Genius XC spectrofluorimeter, Monaco) with excitation/emission wavelength of 488/517 nm. Three samples were studied for each conditions.
In view of the absence of specific properties of PAR30 in solution compared to shorter or longer PAR chains, the antimicrobial abilities of PAR30/HA films should be related to the film property by itself. In this context, the inventors investigated if the bactericidal property of the film is due to the release of PAR30 chains from the multilayer into the solution or if bacteria need to come in contact with the film to be killed. For this purpose two types of experiments were performed. Using fluorescently labelled PAR30 chains we first determined the release of PAR30 chains into the solution containing solely MH medium with and without S. aureus. […] Finally, we also performed an experiment where bacteria were brought in contact with a (PAR30/HA)24 film for 24 hours. […]

[5] = PAR concentrations up to 0.04 mg·mL^−1

| Substance | MIC of a well-known antimicrobial peptide, compared with MIC100 of PAR [1] | bacterial growth inhibition in solution [2] | S. aureus growth inhibition in solution ([2]; PAR 0.02 mg·mL^−1) | S. aureus growth inhibition in solution (in words) [2, 5] | proportion of mobile PAR chains (mobile fraction) [3] | S. aureus growth inhibition in solution ([2]; PAR 0.01 mg·mL^−1, hydrochloride) | S. aureus growth inhibition in solution (in words) ([2]; PAR 0.02 mg·mL^−1) | MIC90 ([2]; in solution, S. aureus) | concentration needed for a similar effect (about 90% inhibition) ([2]; in solution, S. aureus) | times less active than PAR100 or PAR200 chains (from MICs in solution) ([2]; hydrochloride) | PAR30 released into solution [4] |
| --- | --- | --- | --- | --- | --- | --- | --- | --- | --- | --- | --- |
| cateslytin | 30 µM |  |  |  |  |  |  |  |  |  |  |
| poly(I-arginine hydrochloride) [PAR200] |  | about 90% | about 45% | totally inhibited | about 12% |  |  |  |  |  |  |
| poly(I-arginine hydrochloride) [PAR30] |  |  |  | totally inhibited |  | 100% | quasi total inhibition | about 2 μM | about 10 μM | 2 times | about 0.18 μM |
| poly(I-arginine hydrochloride) [PAR100] |  | about 90% |  | totally inhibited | 63% and 70% |  | quasi total inhibition |  |  |  |  |
| poly(I-arginine hydrochloride) [PAR10] |  |  |  | totally inhibited | ~90% |  | quasi total inhibition |  | about 10 μM | 10 times |  |
